From US20260150841A1, “PYRIDINE COMPOUNDS FOR COMBATTING DIHYDROOROTATE-DEHYDROGENASE INHIBITOR-RESISTANT PHYTOPATHOGENIC FUNGI” (priority 2022, published 2026)
≈ marks a conversion by molar mass, not a printed value. Where two headings read alike, the source gives them in different places.

What was measured:
Assay type in all cases: cell-based
[1] = tested on: Sclerotinia sclerotiorum (sensitive, wild-type); assay: Activity against Sclerotinia sclerotiorum in tissue culture plate assay with mycelial plugs, wild type; settings: 168 h, % growth after 7 days at 18° C., read-out: Absolute IC50, wild type
Method: Fungal strains used: • a) Sclerotinia sclerotiorum (sensitive, wild-type) • b) Mutants of Sclerotinia sclerotiorum
Pure cultures are grown on DOB-agar medium, (3.4 g/l YNB (Becton Dickinson), 10 g/l Ammoniumsulfat, 40 g/l Glucose) for 5-7 days at 18° C. Mycelial plugs (6 mm diame-ter) taken from the margin of the colonies are used as inoculum for the sensitivity test. 500 μl fungicide-amended DOB medium (3.4 g/l YNB (Becton Dickinson), 10 g/l Ammoniumsulfat, 40 g/l Glucose, adjusted to pH 7) are added to each well of 24-well tissue culture plates. Each well is then inoculated with a mycelial plug, with the myce-lium surface up. Two replicate wells are used for each isolate and fungicide concentration. Growth is assed after 7 days incubation at 18° C. in the dark by estimating % growth in the well. IC50-values (concentration of test compound resulting in 50% inhibition of fungal growth) were calculated from the resulting dose-response for each compound and strain.

[2] = tested on: Botrytis cinerea (sensitive, wild-type); assay: Activity against Botrytis cinerea in the microtiter test, wild type; settings: turbidity at 620 nm after 7 days; for IC50: 168 h, read-out: Absolute IC50, wild type
Method: (§1) The active substances were formulated separately as a stock solution in dimethyl sulfoxide (DMSO) at a concentration of 10 000 ppm.
(§2) Fungal strains used: • a) Botrytis cinerea (sensitive, wild-type) • b) Various mutants of Botrytis cinerea
(§3) The spores of Botrytis cinerea were harvested with a cotton swab from an Oatmeal agar plate (50 g/l Oatmealagar (Sigma, Art.O-3506), 15 g/l agar, (Difco) and this is dipped in 3 ml of double concentrated DOB-medium (3.4 g/l YNB (Becton Dickinson), 10 g/l Ammoniumsulfat, 40 g/l Glucose, adjusted to pH 7) and the spore suspension is adjusted to a spore density of 3.2×10^4 spores/ml. The compound solutions were diluted from stock solution in (dimethylsulfoxide) DMSO in several steps with sterile deionized water before use. High test concentrations were 50 mg/L (ppm) or 31 mg/L (ppm). Compound solutions were transferred into empty microplates and filled up with an equal amount of spore suspension.
(§4) The antifungal activity was determined by measuring the turbidity of a culture in 96-well microplates in the presence of test compounds after 7 days incubation at 620 nm. A blank value for each concentration (growth media+compound, without spores) are subtracted from the spore suspension. The relative antifungal activity was calculated by comparing the effect of the test compounds with the effect of a DMSO control The results are shown in Table IV (for compounds of general formula I.A), VI (for compounds of general formula I.B), and VIII (for compounds of general formula I.C).
(§5) The absolute IC50-values (concentration of test compound resulting in 50% inhibition of fungal growth) were calculated from the resulting dose-response for each compound and strain.

[3] = tested on: Botrytis cinerea mutant H108P; assay: Activity against Botrytis cinerea in the microtiter test, mutant H108P; settings: for IC50: Botrytis cinerea, MUTANTH108P, 168 h, read-out: Absolute IC50, H108P, Botrytis cinerea mutant H108P
Source text: as §1
(§6) Spontaneous mutants were selected by plating out B. cinerea spores (in the range of 10^7-10^8) on DOB agar plates (3.4 g/l YNB (Becton Dickinson), 10 g/l Ammoniumsulfat, 40 g/l Glucose, 20 g/l Agar), amended with different lethal concentrations of active ingredient. After 7-14 days growing colonies were transferred to DOB agar plates, amended with the same lethal concentrations of active ingredient and then further propagated on Oatmeal agar medium (50 g/l Oatmeal agar (Sigma), 15 g/l Agar (Difco) for sensitivity testing.
as §2, §3, §4
(§7) A compound showing an IC50 (MUT) above the IC50 (WT) and showing an IC50 (MUT) to IC50 (WT) ratio being in a range above 100 is considered unsuitable (“I”) as DHODH inhibitor.
as §5

[4] = tested on: Botrytis cinerea mutant G111E; assay: Activity against Botrytis cinerea in the microtiter test, mutant G111E; settings: for IC50: Botrytis cinerea, MUTANTG111E, 168 h, read-out: Absolute IC50, G111E, Botrytis cinerea mutant G111E
Source text: as §1, §6, §2, §3, §4, §7, §5

[5] = tested on: Botrytis cinerea mutant G111V; assay: Activity against Botrytis cinerea in the microtiter test, mutant G111V; settings: for IC50: Botrytis cinerea, MUTANTG111V, 168 h, read-out: Absolute IC50, G111V, Botrytis cinerea mutant G111V
Source text: as §1, §6, §2, §3, §4, §7, §5

[6] = tested on: Botrytis cinerea mutant V195F; assay: Activity against Botrytis cinerea in the microtiter test, mutant V195F; settings: for IC50: Botrytis cinerea, MUTANTV195F, 168 h, read-out: Absolute IC50, V195F, Botrytis cinerea mutant V195F
Source text: as §1, §6, §2, §3, §4, §7, §5

[7] = tested on: Botrytis cinerea mutant Y208H; assay: Activity against Botrytis cinerea in the microtiter test, mutant Y208H; settings: for IC50: Botrytis cinerea, MUTANTY208H, 168 h, read-out: Absolute IC50, Y208H, Botrytis cinerea mutant Y208H
Source text: as §1, §6, §2, §3, §4, §7, §5

[8] = turbidity at 620 nm after 7 days

| Molecule | IC50 [1] [µg/mL] | IC50 [3, 8] [µg/mL] | IC50 [4, 8] [µg/mL] | IC50 [5, 8] [µg/mL] | IC50 [6, 8] [µg/mL] | IC50 [7, 8] [µg/mL] | also measured |
| --- | --- | --- | --- | --- | --- | --- | --- |
| CN1c2c(F)cccc2C(c2cnc3c(F)cccc3c2)=NC1(C)C | 0.03 (≈ 0.0889 µM) |  |  |  |  |  |  |
| 4-[6-(difluoromethyl)-5-methyl-3-pyridyl]-8-fluoro-2,2-dimethyl-1H-quinazoline [compound 44] |  |  |  |  |  |  | Absolute IC50, wild type [2]: 0.01 ppm; Absolute IC50, H108P ([3]; Botrytis cinerea mutant H108P, turbidity at 620 nm after 7 days): 0.50 ppm; Absolute IC50, G111E ([4]; Botrytis cinerea mutant G111E, turbidity at 620 nm after 7 days): 0.08 ppm; Absolute IC50, G111V ([5]; Botrytis cinerea mutant G111V, turbidity at 620 nm after 7 days): 0.73 ppm; Absolute IC50, V195F ([6]; Botrytis cinerea mutant V195F, turbidity at 620 nm after 7 days): 0.03 ppm; Absolute IC50, Y208H ([7]; Botrytis cinerea mutant Y208H, turbidity at 620 nm after 7 days): 1.64 ppm |
| Cc1cc(C2=NC3(CCC(C)(C)C3)Oc3ccccc32)cnc1C (stereo not shown) [Ex 4] | 8.45 (≈ 26.4 µM) |  |  |  |  |  |  |
| Cc1cc(C2=NC(C)(C)Oc3ccccc32)cnc1C [Ex 6] | 0.08 (≈ 0.3 µM) |  |  |  |  |  |  |
| CCC1(CC)N=C(c2cnc(C)c(C)c2)c2ccccc2O1 [Ex 7] | 0.23 (≈ 0.781 µM) |  |  |  |  |  |  |
| Cc1cc(C2=NC(C)(C(C)(C)C)Oc3ccccc32)cnc1C(F)F (stereo not shown) [Ex-3] | 0.893 (≈ 2.59 µM) | 2.54 (≈ 7.38 µM) | 2.81 (≈ 8.16 µM) | 3.17 (≈ 9.2 µM) | 0.75 (≈ 2.18 µM) |  | IC50 [2]: 0.19 µg/mL (≈ 0.552 µM) |
| Cc1cc(C2=NC3(CCC3)Oc3c(F)cccc32)cnc1C [Ex-29] |  | 0.02 (≈ 0.0675 µM) | 2.34 (≈ 7.9 µM) | 0.04 (≈ 0.135 µM) | 0.02 (≈ 0.0675 µM) | 0.93 (≈ 3.14 µM) | IC50 ([2]; Botrytis cinerea): 0.02 µg/mL (≈ 0.0675 µM) |
| Cc1cc(C2=NC3(CCC3)Oc3ccccc32)cnc1C [Ex-32] |  |  |  |  |  | 1.23 (≈ 4.42 µM) | IC50 ([2]; Botrytis cinerea): 0.12 µg/mL (≈ 0.431 µM); Absolute IC50, H108P ([3]; {}): 0.07 ppm; Absolute IC50, G111E ([4]; {}): 2.34 ppm; Absolute IC50, G111V ([5]; {}): 2.85 ppm; Absolute IC50, V195F ([6]; {}): 0.13 ppm |
| COc1ccc2c(c1)OC(C)(C)N=C2c1cnc(C(F)F)c(C)c1 [Ex-35] | 0.468 (≈ 1.41 µM) | 0.29 (≈ 0.873 µM) | 2.7 (≈ 8.12 µM) | 0.72 (≈ 2.17 µM) | 0.05 (≈ 0.15 µM) | 2.02 (≈ 6.08 µM) | IC50 [2]: 0.02 µg/mL (≈ 0.0602 µM) |
| CCN1c2c(F)cccc2C(c2cnc(C(F)F)c(C)c2)=NC1(C)C [compound 45] |  | 0.4 (≈ 1.15 µM) | 0.57 (≈ 1.64 µM) | 0.96 (≈ 2.76 µM) | 0.02 (≈ 0.0576 µM) | 0.27 (≈ 0.777 µM) | IC50 [2]: 0.01 µg/mL (≈ 0.0288 µM) |
| Cc1cc(C2=NCC(C)(C)Oc3ccccc32)cnc1C [compound 47] |  | 0.83 (≈ 2.96 µM) | 2.47 (≈ 8.81 µM) | 0.55 (≈ 1.96 µM) | 0.02 (≈ 0.0713 µM) | 1.9 (≈ 6.78 µM) | IC50 ([2]; Botrytis cinerea): 0.04 µg/mL (≈ 0.143 µM) |
| Cc1cc(C2=NC(C)(C)C(C)(C)Oc3ccccc32)cnc1C(F)F [compound 49] |  | 0.32 (≈ 0.929 µM) | 2.35 (≈ 6.82 µM) | 0.7 (≈ 2.03 µM) | 0.01 (≈ 0.029 µM) | 0.97 (≈ 2.82 µM) | IC50 [2]: 0.01 µg/mL (≈ 0.029 µM) |
| Cc1cc(C2=NC3(CCC3)Oc3ccccc32)cnc1C [drawing 125, reference compound] |  |  |  |  |  |  | Absolute IC50, wild type [2]: 0.11 ppm; Absolute IC50, H108P ([3]; {}): 0.25 ppm; Absolute IC50, G111E ([4]; {}): 10.94 ppm; Absolute IC50, G111V ([5]; {}): 0.25 ppm; Absolute IC50, V195F ([6]; {}): 2.99 ppm; Absolute IC50, Y208H ([7]; {}): 1.43 ppm |
| CC(C)(C)C1(C)N=C(c2cnc3c(F)cccc3c2)c2ccccc2O1 (stereo not shown) [drawing 166] | 0.137 (≈ 0.393 µM) |  |  |  |  |  |  |
| CC1(c2ccccc2)N=C(c2cnc3c(F)cccc3c2)c2cccc(F)c2O1 (stereo not shown) [drawing 168] | 0.154 (≈ 0.399 µM) |  |  |  |  |  |  |
| COc1ccc2c(c1)OC(C)(C)N=C2c1cnc2c(F)cccc2c1 [drawing 170] | 0.06 (≈ 0.178 µM) |  |  |  |  |  |  |
| CCN1c2c(F)cccc2C(c2cnc3c(F)cccc3c2)=NC1(C)C [drawing 175] | 0.03 (≈ 0.0854 µM) |  |  |  |  |  |  |
| CC1(C)N=C(c2cnc3c(F)cccc3c2)c2ccccc2OC1(C)C [drawing 178] | 2 (≈ 5.73 µM) |  |  |  |  |  |  |
| Fc1cccc2c1OC1(CCC1)N=C2c1cnc2ccccc2c1 [reference compound] |  | 0.11 (≈ 0.346 µM) | 9.48 (≈ 29.8 µM) | 0.14 (≈ 0.44 µM) | 24.1 (≈ 75.9 µM) | 1.59 (≈ 4.99 µM) | IC50 [2]: 0.03 µg/mL (≈ 0.0942 µM) |
